Key:
Format in all cases: in vivo
[1] = system: barnyardgrass (Echinochloa crus-galli); test: Test A postemergence application, visual injury rating 0-100; conditions: Postemergence
How it was run: (§1)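 Compounds formulated in a non-phytotoxic solvent with surfactant are sprayed onto soil of freshly planted loam-sand pots ahead of emergence, or onto emerged plants 2-10 cm tall. After a 10-day greenhouse period, each species is scored visually for injury against untreated controls.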

[2] = system: oat, wild (wild oat, Avena fatua); test: as above; conditions: Postemergence
How it was run: as §1

[3] = system: wheat (Triticum aestivum); test: as above; conditions: Postemergence
How it was run: as §1

[4] = system: palmer (palmer amaranth, palmer pigweed, Amaranthus palmeri); test: as above; conditions: Postemergence
How it was run: as §1

[5] = system: blackgrass (Alopecurus myosuroides); test: as above; conditions: Postemergence
How it was run: as §1

[6] = system: ryegrass, Italian (italian ryegrass, Lolium multiflorum); test: as above; conditions: Postemergence
How it was run: as §1

[7] = system: galium (catchweed bedstraw, Galium aparine); test: as above; conditions: Postemergence
How it was run: as §1

soybean (Glycine max) [8] = test: as above; conditions: Postemergence
How it was run: as §1

[9] = system: ragweed (common ragweed, Ambrosia artemisiifolia); test: as above; conditions: Postemergence
How it was run: as §1

corn (Zea mays) [10] = test: as above; conditions: Postemergence
How it was run: as §1

kochia (Bassia scoparia) [11] = test: as above; conditions: Postemergence
How it was run: as §1

[12] = system: horseweed (Erigeron canadensis); test: as above; conditions: Postemergence
How it was run: as §1

rice (Oryza sativa) = test: Test B flooded paddy test, visual plant response rating 0-100; conditions: 250 g ai/ha, Flood, applied to paddy water, evaluated after 13 days
How it was run: (§2)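 Visual scores versus untreated controls were recorded 13 days after treatment of greenhouse-held plants. At the 2-leaf stage, pots were flooded 3 cm above the soil surface and compounds added straight to the water.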

[13] = system: barnyardgrass (Echinochloa crusgalli); test: as above; conditions: 250 g ai/ha, Flood, applied to paddy water, evaluated after 13 days
How it was run: as §2

[14] = system: ducksalad (Heteranthera limosa); test: as above; conditions: 250 g ai/ha, Flood, applied to paddy water, evaluated after 13 days
How it was run: as §2

[15] = system: sedge, umbrella (small-flower umbrella sedge, Cyperus difformis); test: as above; conditions: 250 g ai/ha, Flood, applied to paddy water, evaluated after 13 days
How it was run: as §2

[16] = system: barnyardgrass (Echinochloa crus-galli); test: Test A preemergence soil spray, visual injury rating 0-100; conditions: 10 days, 0 = no effect, 100 = complete control; for Barnyardgrass plant response rating (0-100): 31 g ai/ha; for Barnyardgrass plant response rating (0 to 100 scale): 125 g ai/ha
How it was run: as §1

[17] = system: oat, wild (wild oat, Avena fatua); test: as above; conditions: 10 days, 0 = no effect, 100 = complete control; for Oat, Wild plant response rating (0-100): 31 g ai/ha; for Oat, Wild plant response rating (0 to 100 scale): 125 g ai/ha
How it was run: as §1

[18] = system: wheat (Triticum aestivum); test: as above; conditions: 10 days, 0 = no effect, 100 = complete control; for Wheat plant response rating (0-100): 31 g ai/ha; for Wheat plant response rating (0 to 100 scale): 125 g ai/ha
How it was run: as §1

[19] = system: palmer (palmer amaranth, palmer pigweed, Amaranthus palmeri); test: as above; conditions: 10 days, 0 = no effect, 100 = complete control; for Amaranth, Palmer plant response rating (0-100): 31 g ai/ha; for Amaranth, Palmer plant response rating (0 to 100 scale): 125 g ai/ha
How it was run: as §1

[20] = system: blackgrass (Alopecurus myosuroides); test: as above; conditions: 10 days, 0 = no effect, 100 = complete control; for Blackgrass plant response rating (0-100): 31 g ai/ha; for Blackgrass plant response rating (0 to 100 scale): 125 g ai/ha
How it was run: as §1

[21] = system: ryegrass, Italian (italian ryegrass, Lolium multiflorum); test: as above; conditions: 10 days, 0 = no effect, 100 = complete control; for Ryegrass, Italian plant response rating (0-100): 31 g ai/ha; for Ryegrass, Italian plant response rating (0 to 100 scale): 125 g ai/ha
How it was run: as §1

soybean (Glycine max) [22] = test: as above; conditions: 10 days, 0 = no effect, 100 = complete control; for Soybean plant response rating (0-100): 31 g ai/ha; for Soybean plant response rating (0 to 100 scale): 125 g ai/ha
How it was run: as §1

[23] = system: ragweed (common ragweed, Ambrosia artemisiifolia); test: as above; conditions: 10 days, 0 = no effect, 100 = complete control; for Ragweed plant response rating (0-100): 31 g ai/ha; for Ragweed plant response rating (0 to 100 scale): 125 g ai/ha
How it was run: as §1

corn (Zea mays) [24] = test: as above; conditions: 10 days, 0 = no effect, 100 = complete control; for Corn plant response rating (0-100): 31 g ai/ha; for Corn plant response rating (0 to 100 scale): 125 g ai/ha
How it was run: as §1

kochia (Bassia scoparia) [25] = test: as above; conditions: 10 days, 0 = no effect, 100 = complete control; for Kochia plant response rating (0-100): 31 g ai/ha; for Kochia plant response rating (0 to 100 scale): 125 g ai/ha
How it was run: as §1

[26] = 31 g ai/ha, greenhouse 10 days, 0 no effect, 100 complete control
[27] = 125 g ai/ha, 10 days, 0 is no effect, 100 is complete control

CC1(C(=O)NC2C=CC(C(=O)ON=Cc3ccccc3)C2)CN(c2cc(F)cc(F)c2)C(=O)O1 (stereo not drawn) [Compound 68]
98: Plant response rating, Sedge, Umbrella (0 to 100 scale, 0 is no effect and 100 is complete control) [15]
30: Oat, Wild plant response rating (0 to 100 scale) [2, 26]
60: Oat, Wild plant response rating (0-100) [17]
90: Barnyardgrass plant response rating (0 to 100 scale) [1, 26] | Barnyardgrass plant response rating (0 to 100 scale) [1, 27] | Oat, Wild plant response rating (0 to 100 scale) [2, 27] | Wheat plant response rating (0 to 100 scale) [3, 27] | Amaranth, Palmer / Pigweed, Palmer plant response rating (0 to 100 scale) [4, 26] | Amaranth, Palmer / Pigweed, Palmer plant response rating (0 to 100 scale) [4, 27] | Blackgrass plant response rating (0 to 100 scale) [5, 27] | Ryegrass, Italian plant response rating (0 to 100 scale) [6, 26] | Galium plant response rating (0 to 100 scale) [7, 26] | Galium plant response rating (0 to 100 scale) [7, 27] | Soybean plant response rating (0 to 100 scale) (soybean (Glycine max) [8]; [26]) | Kochia plant response rating (0 to 100 scale) (kochia (Bassia scoparia) [11]; [27]) | Horseweed plant response rating (0 to 100 scale) [12, 27] | Barnyardgrass plant response rating (0-100) [16] | Oat, Wild plant response rating (0 to 100 scale) [17] | Wheat plant response rating (0 to 100 scale) [18] | Kochia plant response rating (0 to 100 scale) (kochia (Bassia scoparia) [25])
0: Ragweed plant response rating (0 to 100 scale) [9, 26] | Soybean plant response rating (0-100) (soybean (Glycine max) [22]) | Ragweed plant response rating (0-100) [23] | Corn plant response rating (0-100) (corn (Zea mays) [24])
95: Plant response rating, Ducksalad (0 to 100 scale, 0 is no effect and 100 is complete control) [14]
70: Blackgrass plant response rating (0 to 100 scale) [5, 26] | Blackgrass plant response rating (0 to 100 scale) [20] | Ryegrass, Italian plant response rating (0-100) [21] | Soybean plant response rating (0 to 100 scale) (soybean (Glycine max) [22])
85: Plant response rating, Barnyardgrass (0 to 100 scale, 0 is no effect and 100 is complete control) [13]
100: Ryegrass, Italian plant response rating (0 to 100 scale) [6, 27] | Soybean plant response rating (0 to 100 scale) (soybean (Glycine max) [8]; [27]) | Corn plant response rating (0 to 100 scale) (corn (Zea mays) [10]; [27]) | Barnyardgrass plant response rating (0 to 100 scale) [16] | Amaranth, Palmer plant response rating (0-100) [19] | Amaranth, Palmer plant response rating (0 to 100 scale) [19]
40: Plant response rating, Rice (0 to 100 scale, 0 is no effect and 100 is complete control) (rice (Oryza sativa))
80: Wheat plant response rating (0 to 100 scale) [3, 26] | Ragweed plant response rating (0 to 100 scale) [9, 27] | Corn plant response rating (0 to 100 scale) (corn (Zea mays) [10]; [26]) | Kochia plant response rating (0 to 100 scale) (kochia (Bassia scoparia) [11]; [26]) | Wheat plant response rating (0-100) [18] | Ryegrass, Italian plant response rating (0 to 100 scale) [21] | Corn plant response rating (0 to 100 scale) (corn (Zea mays) [24]) | Kochia plant response rating (0-100) (kochia (Bassia scoparia) [25])
50: Horseweed plant response rating (0 to 100 scale) [12, 26] | Blackgrass plant response rating (0-100) [20]
20: Ragweed plant response rating (0 to 100 scale) [23]

CSCCOC(=O)C1C=CC(NC(=O)C2(C)CN(c3cc(Cl)cc(Cl)c3)C(=O)O2)C1 (stereo not drawn) [Compound 69]
70: Ryegrass, Italian plant response rating (0 to 100 scale) [6, 26] | Ryegrass, Italian plant response rating (0 to 100 scale) [6, 27] | Ragweed plant response rating (0 to 100 scale) [9, 27] | Horseweed plant response rating (0 to 100 scale) [12, 26] | Wheat plant response rating (0 to 100 scale) [18]
90: Barnyardgrass plant response rating (0 to 100 scale) [1, 26] | Barnyardgrass plant response rating (0 to 100 scale) [1, 27] | Oat, Wild plant response rating (0 to 100 scale) [2, 26] | Oat, Wild plant response rating (0 to 100 scale) [2, 27] | Wheat plant response rating (0 to 100 scale) [3, 26] | Wheat plant response rating (0 to 100 scale) [3, 27] | Amaranth, Palmer / Pigweed, Palmer plant response rating (0 to 100 scale) [4, 26] | Amaranth, Palmer / Pigweed, Palmer plant response rating (0 to 100 scale) [4, 27] | Blackgrass plant response rating (0 to 100 scale) [5, 26] | Blackgrass plant response rating (0 to 100 scale) [5, 27] | Soybean plant response rating (0 to 100 scale) (soybean (Glycine max) [8]; [27]) | Barnyardgrass plant response rating (0 to 100 scale) [16] | Amaranth, Palmer plant response rating (0-100) [19] | Amaranth, Palmer plant response rating (0 to 100 scale) [19] | Kochia plant response rating (0 to 100 scale) (kochia (Bassia scoparia) [25])
60: Soybean plant response rating (0 to 100 scale) (soybean (Glycine max) [8]; [26]) | Plant response rating, Ducksalad (0 to 100 scale, 0 is no effect and 100 is complete control) [14] | Barnyardgrass plant response rating (0-100) [16] | Oat, Wild plant response rating (0 to 100 scale) [17] | Blackgrass plant response rating (0 to 100 scale) [20] | Corn plant response rating (0 to 100 scale) (corn (Zea mays) [24])
85: Plant response rating, Barnyardgrass (0 to 100 scale, 0 is no effect and 100 is complete control) [13]
95: Plant response rating, Sedge, Umbrella (0 to 100 scale, 0 is no effect and 100 is complete control) [15]
20: Soybean plant response rating (0-100) (soybean (Glycine max) [22]) | Ragweed plant response rating (0 to 100 scale) [23]
100: Corn plant response rating (0 to 100 scale) (corn (Zea mays) [10]; [26]) | Corn plant response rating (0 to 100 scale) (corn (Zea mays) [10]; [27])
0: Oat, Wild plant response rating (0-100) [17] | Ragweed plant response rating (0-100) [23] | Corn plant response rating (0-100) (corn (Zea mays) [24])
50: Ragweed plant response rating (0 to 100 scale) [9, 26] | Plant response rating, Rice (0 to 100 scale, 0 is no effect and 100 is complete control) (rice (Oryza sativa)) | Soybean plant response rating (0 to 100 scale) (soybean (Glycine max) [22])
80: Galium plant response rating (0 to 100 scale) [7, 26] | Galium plant response rating (0 to 100 scale) [7, 27] | Kochia plant response rating (0 to 100 scale) (kochia (Bassia scoparia) [11]; [26]) | Kochia plant response rating (0 to 100 scale) (kochia (Bassia scoparia) [11]; [27]) | Horseweed plant response rating (0 to 100 scale) [12, 27] | Ryegrass, Italian plant response rating (0 to 100 scale) [21]
30: Wheat plant response rating (0-100) [18] | Ryegrass, Italian plant response rating (0-100) [21]
40: Blackgrass plant response rating (0-100) [20] | Kochia plant response rating (0-100) (kochia (Bassia scoparia) [25])
